Literature values in patent publication US12171220B2, “High osmolarity antimicrobial composition containing one or more organic solvents” (Next Science IP Holdings Pty Ltd, priority 2013, dated 2024).
Read-outs that look alike come from different tables or passages of the source.

Settings: for ~δp (MPa^1/2): room temperature
[1] = solvents added in Examples 65-80, text

SMILES	~δp (MPa^1/2) (glycol ethers, Table 1)	~δp (MPa^1/2) (alcohols, Table 2)	also measured
CCCCOCC(C)O (centres unmarked) [propylene glycol monobutyl ether]	~4.5 MPa^1/2	–	–
CCCCCO [Example 1-pentanol, 1-pentanol]	–	~4.5 MPa^1/2	–
CC(C)O [Example 2-propanol, 2-propanol]	–	~6.1 MPa^1/2	–
CO [methanol]	–	~12.3 MPa^1/2	–
CCOCCO [ethylene glycol monoethyl ether]	~9.2 MPa^1/2	–	–
OCc1ccc(Cl)cc1 [4-chlorobenzyl alcohol]	–	~7.5 MPa^1/2	–
CCCCCCCCO [octanol]	–	~3.3 MPa^1/2	–
CCOCCOCCO [diethylene glycol monoethyl ether]	~9.2 MPa^1/2	–	–
CCCCCCCC/C=C\CCCCCCCCO [oleyl alcohol]	–	~2.6 MPa^1/2	–
CC(C)CCCCCO [isooctyl alcohol]	–	~7.3 MPa^1/2	–
OC1CCCCC1 [cyclohexanol]	–	~4.1 MPa^1/2	–
CCCCOCCOCCO [diethylene glycol mono-n-butyl ether]	~7.0 MPa^1/2	–	–
CCCCC(CC)CO (centres unmarked) [2-ethyl-hexanol]	–	~3.3 MPa^1/2	–
CCCCCCCCC(C)O (centres unmarked) [Example 2-decanol, 2-decanol]	–	~10.0 MPa^1/2	–
CCCCOCCO [ethylene glycol monobutyl ether]	~5.1 MPa^1/2	–	–
CCCCO [Example 1-butanol, 1-butanol]	–	~5.7 MPa^1/2	–
CCCOCCO [ethylene glycol monopropyl ether]	~8.2 MPa^1/2	–	–
OCCOCc1ccccc1 [ethylene glycol monobenzyl ether]	~5.9 MPa^1/2	–	–
OCC(Cl)CCl (centres unmarked) [2,3-dichloropropanol]	–	~9.2 MPa^1/2	–
CCCCCCCC/C=C\CCCCCCCCOCCOCCOCCO [triethylene glycol monooleyl ether]	~3.1 MPa^1/2	–	–
CCO [ethanol]	–	~8.8 MPa^1/2	–

SMILES	~δp (MPa^1/2) (glycol ethers, Table 1)	~δp (MPa^1/2) (alcohols, Table 2)	also measured
CCCOCC(C)O (centres unmarked) [propylene glycol monopropyl ether]	~5.6 MPa^1/2	–	–
CCCC(C)O (centres unmarked) [Example 2-pentanol, 2-pentanol]	–	~6.4 MPa^1/2	–
CCCO [Example 1-propanol, 1-propanol]	–	~6.8 MPa^1/2	–
Clc1ccccc1 [chlorobenzene]	–	–	δp [1]: 4.3
OC1C=CCC1 (centres unmarked) [2-cyclopentenyl alcohol]	–	~7.6 MPa^1/2	–
CC(C)OCCO [ethylene glycol monoisopropyl ether]	~8.2 MPa^1/2	–	–
CCOC(C)=O [ethyl acetate]	–	–	δp [1]: 5.3
O [water]	–	–	δp (water): ≈ 16.0 MPa^1/2
COCCO [ethylene glycol monomethyl ether]	~9.2 MPa^1/2	–	–
CCCCCCCCCCO [Example 1-decanol, 1-decanol]	–	~10.0 MPa^1/2	–
C=CCO [Example 2-propenol, 2-propenol]	–	~10.8 MPa^1/2	–
COCCOCCOCCO [triethylene glycol monomethyl ether]	~7.6 MPa^1/2	–	–
OCCOc1ccccc1 [ethylene glycol monophenyl ether]	~5.7 MPa^1/2	–	–
COCCOCCO [diethylene glycol monomethyl ether]	~7.8 MPa^1/2	–	–
CCOCC(C)O (centres unmarked) [propylene glycol monoethyl ether]	~6.5 MPa^1/2	–	–
CC(C)COCC(C)O (centres unmarked) [propylene glycol monoisobutyl ether]	~4.7 MPa^1/2	–	–
COCC(C)O (centres unmarked) [propylene glycol monomethyl ether]	~6.3 MPa^1/2	–	–
CC(O)COC(C)C (centres unmarked) [propylene glycol monoisopropyl ether]	~6.1 MPa^1/2	–	–
CCC(CC)CO [2-ethyl-1-butanol]	–	~4.3 MPa^1/2	–
CC(C)(C)O [t-butyl alcohol]	–	~5.1 MPa^1/2	–
